Marks after values point to notes of the source that are not given here.

Experiment [1] has as its system MCF10A CDH1^−/− cells. The experiment in a line: 11-point dose-response screen, cell titre blue (CTB) viability. In kind it is cell-based, human. As to conditions: for EC50: Homo sapiens, MCF-10A. The procedure: (§1) The 11-point dose-response screen evaluated a concentration range from 0.02 µM to 20 µM for both isogenic cell lines in duplicate biological replicates (Fig. 4). One limitation to metabolism-based cellular assays is that a change in read out (fluorescence, luminescence or absorbance) may not necessarily be caused by cell death and could instead result from a cessation of proliferation due to senescence or inhibited mitochondrial respiration. For this reason, a direct measurement of cell counts using cellular imaging of nuclei stained with Hoechst 33342 was also included at the 11-point screening stage. For the CTB 11-point screen all plates had acceptable Z’ values above 0.4, with the second biological replicate having 70% above 0.6 (Fig. 4A). The Z’ values for the high-content imaging (HCI) 11-point screen plates were above 0.4 for MCF10A WT, except one plate from biological replicate two with 0.396 (Fig. 4B). However, for MCF10A CDH1^−/− HCI data, only four plates were above a Z’ of 0.4 and the mean Z’ was 0.32 compared to a mean of 0.51 for MCF10A WT. A further quality metric known as the strictly standardized mean difference (SSMD)[40] is a less conservative approach for QC and a cut-off of >3 is generally used. The mean SSMD value was 7.04 for MCF10A WT and 5.27 for MCF10A CDH1^−/− plates and indicates the MCF10A CDH1^−/− HCI data was acceptable[41]. There was a good correlation between the top hits from the HCI and CTB 11-point screening with an overlap of 31 / 40 for the top 40 compounds selected from the eventual hit selection strategies.
(§2) MCF10A WT and MCF10A CDH1^−/− cells were seeded into Corning black walled, clear bottom 384-well plates (assay plates) using a multidrop 384 reagent dispenser (Thermo Fisher Scientific) and a total volume of 50 μL per well.
(§3) As we have shown MCF10A CDH1^−/− cells have a prolonged lag to log phase growth of around 24 hours, in order to achieve a similar confluence at 72 hours post seeding MCF10A WT and MCF10A CDH1^−/− cell lines were seeded at 600 cells/well and 800 cells/well, respectively. Following seeding, plates were left for one hour at RT without stacking[46] and then centrifuged at 500 × g (RCF) for one minute. Plates were then transferred to an incubator at 37 °C and 5% CO2. At 24 hours post seeding, the MiniTrak robotic liquid handling system (Perkin Elmer) was used to transfer 352 compounds per 384-well library plate to the first 22 columns of a 384-well assay plate containing cells to achieve a 10 μM final compound concentration for the pilot, primary and single-point confirmation screens. For the 11-point dose-response screen, compounds were added to columns 1–22, but excluding edge rows A and P of the library plate to reduce edge-effects (Supplementary Fig. 2). The controls of DMSO (0.2% v/v), doxorubicin (EC80) and entinostat (EC50) were added into columns 23–24 of each assay plate (Supplementary Table 1). Cell titre blue[47] was made in-house in sterile PBS from 597 μM resazurin, 78 μM methylene blue, 1 mM potassium hexacyanoferrate (III) and 1 mM potassium hexacyanoferrate (II) trihydrate. At 69 hours post seeding, 16.7% v/v CTB was added to plates and they were incubated at 37 °C for 3 hours (Supplementary Fig. 1). At 72 hours post seeding, plates were removed from the incubator and left for 30 minutes at RT to equalise the temperature across all wells of the plates and reduce fluorescence-based edge effects before reading on an EnVision (PerkinElmer) at 550 nm excitation and 590 nm emission to quantify cell viability.
(§4) Supplementary Table 1. Killing control and SL control effective concentrations.
(§5) Doxorubicin EC80 0.3 µM 0.4 µM
(§6) MCF10A WT cells were seeded at 600/well and MCF10A CDH1-/- cells at 800/well in 384-well plates. Drugs
(§7) were added at 24 hours post seeding and CTB was used as an end-point assay. Concentrations were normalized

Experiment [2] deals with MCF10A WT cells. The description is as above. In kind it is cell-based, human. As to conditions: Homo sapiens, MCF-10A, 11-point screen; for EC50: CTB, read-out: MCF10A WT CTB EC50. As for the experimental part: as §1, §2, §3, §4, §5, §6, §7
Experiment [3] relates to MCF10A CDH1^−/− cells. In words: Medium-throughput validation in 96-well plates, Hoechst-33342 nuclei counts (CellProfiler). In kind it is cell-based, human. As to conditions: for EC50 ratio (MCF10A WT/MCF10A CDH1^−/−) / EC50: 96-well validation; for EC50: Hoechst nuclei counts, at least five concentration points; for Differential at 5 µM (%): 48 h post compound addition. The procedure:
(§8) Cells were seeded into each well of Corning’s black walled, clear bottom 96-well plates with a total volume of 100 μL per well. Edge wells were excluded. Both isogenic cell lines were seeded into the same plate to mitigate plate-to-plate variation. Plates for real-time analysis were transferred to the xCELLigence platform (ACEA Biosciences, USA) or the IncuCyte FLR imaging system (Essen BioScience, USA) as previously described.
(§9) Seventy-two hours post seeding (or 48 hours post compound addition), plates were assayed for cell viability using a one-step cocktail of PFA (0.25% v/v), saponin (0.075% w/v) and Hoechst 33342 (1 μg/ml final) as described previously. CellProfiler was used to enumerate cell counts as previously described.

Experiment [4] has as its system MCF10A CDH1^−/− cells. In words: IncuCyte real-time live cell imaging (cell confluence). In kind it is cell-based, human. As to conditions: for Greatest SL difference in the slope of the growth trendline, MCF10A CDH1^−/− compared to MCF10A WT: linear growth phase; for Growth rate effect in MCF10A CDH1^−/− cells (in words): all concentrations between 2.5–20 μM, 48 hours. As for the experimental part: (§10) Real-time viability assays were performed on the two lead compounds SLEC-8 and SLEC-11 using the two isogenic MCF10A cell lines. The IncuCyte and xCELLigence assay systems quantify cell growth over the drugging period in real-time, allowing for the assessment of even subtle growth inhibitory effects following compound treatment. The IncuCyte was used in combination with an end-point assay (nuclei counting) to give both live cell imaging and normalized cell counts for each plate.
(§11) Figure 9 IncuCyte validation data for lead compounds 8 and 11. (A) Timeline for the combined live cell imaging and end-point viability assays. Plates were seeded 4,000 cells/well as described in the Methods. (B,C) One hour following compound addition, plates were transferred to the IncuCyte. Three 4x images per well were taken every two hours for 48 hours. An EC80 dose of doxorubicin was used (Supplementary Table 1). Data shown is a representative experiment of three biological replicates. Error bars are SD. The cell confluence v1.5 was calculated using the IncuCyte software. (B) Live cell imaging for SLEC-8. (C) Live cell imaging for SLEC-11. Graphs were created in Excel.
(§12) To calculate growth rates, a trendline was fitted to the linear growth phase of each cell line. The greatest SL difference in the slope of the trendline for SLEC-8 as at 10 μM treatment with 2.0 fold difference for MCF10A CDH1^−/− cells, compared to MCF10A WT. For SLEC-11 the greatest SL difference was at 20 μM, with a 4.0 fold difference in the slope of the trendline for MCF10A CDH1^−/− cells compared to MCF10A WT (data not shown).
as §8

Experiment [5] relates to MCF10A WT cells. Described as above. In kind it is cell-based, human. As to conditions: 2.5–20 μM, 48 hours. As for the experimental part:
as §10, §11, §12, §8

In experiment [6] the test system is MCF10A WT cells. The experiment in a line: Medium-throughput validation in 96-well plates, Hoechst-33342 nuclei counts (CellProfiler). In kind it is cell-based. As to conditions: Homo sapiens, MCF-10A, 96-well validation, at least five concentration points. The procedure: as §8, §9
The mark [7] stands for this setting: normalized cell counts MCF10A WT – MCF10A CDH1^−/−, 96-well.

As to `CC(O)CNCc1ccc(OCc2ccc(Cl)cc2Cl)cc1` (stereo not shown) [SLEC-8], the EC50 in experiment [1] (11-point screen, CTB, read-out: MCF10A CDH1^-/- CTB EC50) amounted to 7.66 µM; in experiment [2], 17.5 µM; in experiment [3], 9.07 µM; in experiment [3] (Homo sapiens, MCF-10A) it was 9.1 µM; in experiment [6], 12.4 µM. In experiment [3], the “EC50 ratio (MCF10A WT/MCF10A CDH1^−/−)” value was determined as 1.36. The “SL differential at 2.5 μM” value in experiment [3] (normalized cell counts MCF10A WT – MCF10A CDH1^−/−, 96-well, 2.5 μM) is 22.0%. In addition, the “Differential at 5 µM (%)” value was 22.8% in experiment [3] (setting [7]) and 22.79* % in experiment [3] (normalized cell counts MCF10A WT – MCF10A CDH1^−/−, 96-well, listed as 8). Also, the “Greatest SL difference in the slope of the growth trendline, MCF10A CDH1^−/− compared to MCF10A WT” value in experiment [4] (10 μM treatment) was 2.0 fold. Also, the “Growth rate effect in MCF10A CDH1^−/− cells (in words)” value in experiment [4] is “dose-dependent growth rate reduction”. Besides, the “Growth reduction in MCF10A WT cells (in words)” value in experiment [5] was “only observed at the higher concentrations”.
`COc1ccc2nc(C)cc(NCc3ccc(F)cc3)c2c1` [SLEC-11, N-(4-Fluorobenzyl)-6-methoxy-2-methylquinolin-4-amine]: the “Differential at 20 μM” value in experiment [1] (11-point screen, MCF10A WT – MCF10A CDH1−/− POC at 20 μM) came to 106.45. Further, the EC50 in experiment [1] (11-point screen (0.02–20 µM), CTB values, averaged between two biological replicates, Supplementary Table 2, read-out: MCF10A CDH1 -/- EC50) is 6.96 µM; in experiment [2] it was more than 20 µM; in experiment [3], 7.02 µM; in experiment [3] (Homo sapiens, MCF-10A) it was 7 µM; in experiment [6], 10.8 µM. Also, the activity at 20 µM in experiment [2] (viability of WT cells at highest concentration 20 μM, read-out: MCF10A WT POC at 20 μM) was found to be 100%. Also, in experiment [3], the “EC50 ratio (MCF10A WT/MCF10A CDH1^−/−)” value came to 1.53. The “Differential at 5 µM (%)” value in experiment [3] (setting [7]) was 20.7%; in experiment [3] (normalized cell counts MCF10A WT – MCF10A CDH1^−/−, 96-well, listed as 11), 20.74* %. Besides, in experiment [4] (20 μM treatment), the “Greatest SL difference in the slope of the growth trendline, MCF10A CDH1^−/− compared to MCF10A WT” value is given as 4.0 fold. The “Growth rate effect in MCF10A CDH1^−/− cells (in words)” value in experiment [4] is “dose-dependent growth rate reduction”. Besides, the “Growth reduction in MCF10A WT cells (in words)” value in experiment [5] was “only observed at the higher concentrations”.

The values are drawn from article PMC6715681, “A high-throughput screen to identify novel synthetic lethal compounds for the treatment of E-cadherin-deficient cells” (Scientific Reports, 2019).
